Test [1] deals with T1, His-Avi-TEV-mSTING (138-341) mouse wild-type protein (Mus musculus, UniProt Q3TBT3).
T1 construct: made in house; host or cells: E. coli Rosetta 2 (DE3), co-expressed with BirA (1-321)
In words: Protein thermal shift assay, STING C-terminal binding domain protein. The following applies: test compound final concentration 0.5 mM. As for the experimental part:
Each of these expression strains was added to a TB medium containing 100 μg/mL ampicillin, 50 μg/mL streptomycin, and 30 μg/mL kanamycin, cultured at 37° C., then exposed to 100 μM IPTG for inducible expression, and further cultured at 16° C.
The culture solution was centrifuged, and the resulting bacterial cells were suspended in 50 mM HEPES pH 8.0, 500 mM NaCl, 20 mM imidazole, 1 mM DTT, 5% (w/v) glycerol, Complete EDTA free, and then subjected to freeze-thawing. After addition of Lysozyme and DNase I, proteins were extracted by ultrasonic disintegration, and centrifugation was performed and the resulting supernatant was collected. The supernatant obtained was purified by using an AKTA express chromatography system (GE Healthcare, IL, US) with a HisTrap FF column (GE Healthcare), and eluted with buffer (20 mM HEPES pH 7.5, 120 mM NaCl, 20% Glycerol, 0.8 mM DTT) through a Superdex 200 16/60 column (GE Healthcare). […] The protein concentrations were measured by using a NanoDrop2000 (Thermo Fisher Scientific, MA, US), and the proteins were cryopreserved at −80° C. until use.
The binding ability of each compound to the STING C-terminal binding domain proteins was evaluated by protein thermal shift assay, which uses the elevation of thermal denaturation temperature of protein as an index.
Specifically, 3 μL of a test compound (final concentration: 0.5 mM), 3 μL of SYPRO Orange Protein Gel Stain (Thermo Fisher Scientific) (final concentration: 20-fold), and 6 μL of a STING protein were mixed with use of assay buffer (20 mM Tris-HCl pH 7.5, 120 mM NaCl) in a 384-well real-time PCR plate, and mixed together with a plate shaker. With a real-time PCR system (Thermo Fisher Scientific), the temperature was increased from 25° C. to 95° C. at a rate of 0.03° C./sec, and the thermal denaturation temperature of the protein was measured by using fluorescence emitted from SYPRO Orange as an index. From the measurement acquired, Tm (the midpoint of the unfolding transition) (° C.) was determined as a temperature at which the increase rate of fluorescence intensity was maximized by using the analysis software Protein Thermal Shift software (Thermo Fisher Scientific). The Tm value for a well with no compound was subtracted from the Tm value for each test compound to calculate the Tm shift caused by the compound as ΔTm (° C.).

Test [2] has as its system CT26.WT cells. Kind of test: Anti-Tumor Test (1), intratumoral administration. As to conditions: 10 μg intratumorally on Day 7, 9, and 11; CT26.WT in BALB/c mice; FIGS. 7a and 7b. In kind it is in vivo, BALB/c mouse. As for the experimental part:
Mice: Before use for experiment, 5-week-old female BALB/c mice (BALB/cAnNCrlCrlj) (Charles River Laboratories Japan, Inc.) were habituated under SPF conditions for 4 days or longer.
Measurement, calculation formula: In all the studies, the major axis and minor axis of a tumor were measured twice or three times per week by using an electronic digital caliper (CD15-CX, Mitutoyo Corporation) to calculate tumor volume (mm^3). The calculation formula is as follows. Tumor volume (mm^3)=0.5×Major axis (mm)×[Minor axis (mm)]^2
Each test compound was diluted with physiological saline (Otsuka Pharmaceutical Factory, Inc.) for use. In administration of it, 50 μL was intratumorally administered.
Cells of the mouse colorectal cancer cell line CT26.WT (CRL2638) purchased from the American Type Culture Collection were used. CT26.WT cells were suspended in physiological saline, 1.0×10^6 cells were subcutaneously transplanted into the right axilla of each BALB/c mouse (Day 0), and 7 days thereafter the mice were randomly grouped. Each test compound in a dose of 10 μg was intratumorally administered on Day 7, 9, and 11, three times in total. A group with administration of physiological saline was set as a group with a vehicle. The number of mice in each group was five or six.

Test [3] deals with T2, HisAviTEV-hSTING (139-342) human REF-mutated protein (Homo sapiens, UniProt Q86WV6).
T2 construct: made in house; host or cells: E. coli Rosetta 2 (DE3), co-expressed with BirA (1-321)
T2 sequence (Q86WV6 with tags, fused parts or gaps, change not shown): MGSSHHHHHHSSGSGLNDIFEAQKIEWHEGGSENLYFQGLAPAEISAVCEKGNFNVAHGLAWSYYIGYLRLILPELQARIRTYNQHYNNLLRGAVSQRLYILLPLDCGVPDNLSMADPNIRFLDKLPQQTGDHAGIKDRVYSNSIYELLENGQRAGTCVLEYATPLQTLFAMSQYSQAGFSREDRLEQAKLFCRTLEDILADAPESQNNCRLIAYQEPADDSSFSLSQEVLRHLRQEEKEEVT
In words: Protein thermal shift assay, STING C-terminal binding domain protein. As to conditions: test compound final concentration 0.5 mM.

Test [4] concerns the target T3, HisAviTEV-hSTING (139-342) human AQ-mutated protein (Homo sapiens, UniProt Q86WV6, G230A/H232R/R293Q).
T3 construct: made in house; host or cells: E. coli Rosetta 2 (DE3), co-expressed with BirA (1-321)
The test is described as above. As to conditions: test compound final concentration 0.5 mM.

In test [5] the target is T4, HisAviTEV-hSTING (139-342) human wild-type protein (Homo sapiens, UniProt Q86WV6, H232R).
T4 construct: made in house; host or cells: E. coli Rosetta 2 (DE3), co-expressed with BirA (1-321)
T4 sequence (Q86WV6 with tags, fused parts or gaps H232R): as the sequence (Q86WV6 with tags, fused parts or gaps, change not shown) above, with H133R counted along it
Described as above. As to conditions: test compound final concentration 0.5 mM.

The target in test [6] is Human STING (Homo sapiens, UniProt Q86WV6, G230A/H232R/R293Q/R71H). In words: Reporter gene assay, human STING agonist activity, THP1-Dual cells (HAQ-mutated), IRF pathway. As to conditions: THP1-Dual cells IRF EC50, THP1-Dual cells (HAQ-mutated), 24 hours; 100% = maximum count with ML-RR-CDA·2Na+. (In general: A reporter such as luciferase makes a cellular process visible.)
Human STING, sequence (Q86WV6 whole entry R71H/G230A/H232R/R293Q): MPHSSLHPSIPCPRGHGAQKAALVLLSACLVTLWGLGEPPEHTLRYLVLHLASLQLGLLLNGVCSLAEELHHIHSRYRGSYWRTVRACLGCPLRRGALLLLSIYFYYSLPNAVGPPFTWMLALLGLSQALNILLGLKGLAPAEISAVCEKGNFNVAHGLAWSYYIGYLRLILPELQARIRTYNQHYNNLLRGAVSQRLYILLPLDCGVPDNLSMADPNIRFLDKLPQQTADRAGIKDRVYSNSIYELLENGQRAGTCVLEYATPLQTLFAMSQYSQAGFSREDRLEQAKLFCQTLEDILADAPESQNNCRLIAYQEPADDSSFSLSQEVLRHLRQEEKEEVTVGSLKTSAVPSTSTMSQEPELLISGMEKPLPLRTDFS
Procedure: Human STING agonist activity was evaluated by using THP1-Dual™ cells (HAQ-mutated) (InvivoGen, CA, US), with which the activation of the pathway of interferon regulatory factor-3 (IRF3), which is present in the downstream of the STING pathway, can be confirmed.
Assay was performed as follows. First, a test compound diluted with PBS was aliquoted into a transparent 96-well plate (Corning Incorporated, NY, US) at 20 μL/well. Subsequently, reporter cells suspended in assay buffer (an RPMI1640 medium or DMEM medium containing 10% bovine serum albumin) were added at 180 μL/well (1×10^5 cells/well) to initiate stimulation. After the cells were cultured in an environment at 37° C. and 5% CO2 for 24 hours, the resultant was centrifuged to collect the supernatant. To a white 384-well plate, 6 μL of the supernatant collected was added, and 15 μL of QUANTI-Luc (InvivoGen) solution was added thereto. After the resultant was well mixed together, emission was measured by using a plate reader (PerkinElmer, Inc., MA, US).

For test [7], the system named is CT26.WT-hHER2 cells. In words: Anti-Tumor Test (6). As to conditions: 1.2 μg (equivalent of the conjugate's CDN component) into the tail vein on Day 7, once; CT26.WT-hHER2 in BALB/c mice. In kind it is in vivo, BALB/c mouse.
Procedure: Each antibody-CDN conjugate was diluted with acetate buffer (10 mM Acetate Buffer, 5% Sorbitol, pH 5.5) (NACALAI TESQUE, INC.) for use. In administration of it, 200 μL was administered into the tail vein.
CT26.WT-hHER2 cells were suspended in physiological saline, 5.0×10^6 cells were subcutaneously transplanted into the right axilla of each BALB/c mouse (Day 0), and 7 days thereafter the mice were randomly grouped. Each specimen for administration was administered into the tail vein on Day 7, once in total. A group with administration of acetate buffer was set as a group with a vehicle. The number of mice in each group was five.

T3 sequence (Q86WV6 with tags, fused parts or gaps G230A/H232R/R293Q): as the sequence (Q86WV6 with tags, fused parts or gaps, change not shown) above, with G131A, H133R, R194Q counted along it
T1 sequence (Q3TBT3 with tags, fused parts or gaps limits assumed): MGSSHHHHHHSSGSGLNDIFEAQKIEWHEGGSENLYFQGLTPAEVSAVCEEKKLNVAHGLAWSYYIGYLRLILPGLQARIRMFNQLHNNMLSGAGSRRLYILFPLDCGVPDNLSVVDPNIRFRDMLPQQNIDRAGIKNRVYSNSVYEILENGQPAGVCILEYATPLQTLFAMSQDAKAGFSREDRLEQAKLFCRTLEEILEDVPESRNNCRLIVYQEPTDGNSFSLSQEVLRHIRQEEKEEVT

As usually defined, the ΔTm is the shift of the melting midpoint relative to a reference. What is called EC50 is the concentration that produces a half-maximal response. Read a low EC50 as a more potent agent. Turning to `O=c1c2ncn([C@@H]3O[C@@H]4COP(=O)(S)O[C@H]5[C@@H](O)[C@H](n6cc7c8c(ncnc86)NCCC7)O[C@@H]5COP(=O)(S)O[C@@H]3[C@@H]4O)c2ncn1CCO` (single isomer, unassigned) [6a], the ΔTm at 500 µM in test [1] turned out to be 15.7 °C; in test [3], 5.7 °C; in test [4], 14.8 °C; in test [5], 10.6 °C. Besides, in test [2], the “tumor growth (tumor volume)” value is “significantly suppressed”. The EC50 in test [6] is 600 nM.
`NCCNc1nc(N)c2ncn([C@@H]3O[C@@H]4COP(=O)(S)O[C@H]5[C@@H](O)[C@H](n6cc7c8c(ncnc86)NCCC7)O[C@@H]5COP(=O)(S)O[C@@H]3[C@@H]4O)c2n1` (single isomer, unassigned) [8b]: the “tumor growth (tumor volume)” value is “significantly suppressed” in test [2] and “not suppressed” in test [7]. For the same compound, in test [6], a half-maximal effect (EC50) was put at 6600 nM.
On to `Nc1nc(NCCO)nc2c1ncn2[C@@H]1O[C@@H]2COP(=O)(S)O[C@H]3[C@@H](O)[C@H](n4cc5c6c(ncnc64)NCCC5)O[C@@H]3COP(=O)(S)O[C@@H]1[C@@H]2O` (single isomer, unassigned) [9b], for which the “tumor growth (tumor volume)” value in test [2] is on record as “significantly suppressed”. In test [6], a half-maximal effect (EC50) was put at 2400 nM.
As to `NCCNc1nc(N)c2ncn([C@@H]3O[C@@H]4COP(=O)(S)O[C@H]5[C@@H](F)[C@H](n6cc7c8c(ncnc86)NCCC7)O[C@@H]5COP(=O)(S)O[C@@H]3[C@@H]4F)c2n1` (single isomer, unassigned) [45b], in test [1], the “ΔTm Ms-WT” value was 12.1 °C. Also, the “ΔTm Hu-REF” value in test [3] was 3.1 °C. The “ΔTm Hu-AQ” value in test [4] worked out at 9.1 °C. Besides, in test [5], the “ΔTm Hu-WT” value worked out at 7.5 °C. The compound also came in with a concentration for a half-maximal effect (EC50) in test [6] of 3100 nM.
`O=c1c2ncn([C@@H]3O[C@@H]4COP(=O)(S)O[C@H]5[C@@H](F)[C@H](n6cc7c8c(ncnc86)SCCC7)O[C@@H]5COP(=O)(S)O[C@@H]3[C@@H]4O)c2ncn1CCO` (single isomer, unassigned) [48a]: the ΔTm at 500 µM in test [1] is 16 °C; in test [3], 9.3 °C; in test [4], 22.2 °C; in test [5], 15.9 °C. This compound also yielded a concentration for a half-maximal effect (EC50) in test [6] of 35 nM.
The matching figures for `NCCn1cnc2c(ncn2[C@@H]2O[C@@H]3COP(=O)(S)O[C@H]4[C@@H](F)[C@H](n5cc6c7c(ncnc75)SCCC6)O[C@@H]4COP(=O)(S)O[C@@H]2[C@@H]3O)c1=O` (single isomer, unassigned) [49b]: 19.3 °C, 6.6 °C, 16.1 °C, 12.6 °C and 410 nM.
On the same counts, the results for `O=C(CO)NCCn1cnc2c(ncn2[C@@H]2O[C@@H]3COP(=O)(S)O[C@H]4[C@@H](F)[C@H](n5cc6c7c(ncnc75)SCCC6)O[C@@H]4COP(=O)(S)O[C@@H]2[C@@H]3O)c1=O` (single isomer, unassigned) [50a] are 13 °C, 6.5 °C, 15.6 °C, 12.3 °C and 340 nM.
On the same counts, the results for `NCCNc1nc(N)c2ncn([C@@H]3O[C@@H]4COP(=O)(S)O[C@H]5[C@@H](F)[C@H](n6cc7c8c(ncnc86)SCCC7)O[C@@H]5COP(=O)(S)O[C@@H]3[C@@H]4F)c2n1` (single isomer, unassigned) [51b] are 17 °C, 4.3 °C, 11.6 °C, 9.9 °C and 430 nM.
For `O=c1c2ncn([C@@H]3O[C@@H]4COP(=O)(O)O[C@H]5[C@@H](F)[C@H](n6cc7c8c(ncnc86)NCCC7)O[C@@H]5COP(=O)(S)O[C@@H]3[C@@H]4O)c2ncn1CCO` (single isomer, unassigned) [52a], the ΔTm at 500 µM in test [1] was found to be 14.3 °C; in test [3], 5.6 °C; in test [4] it was 13.5 °C; in test [5] it was 10.9 °C. In test [6], this compound yielded a 50% effective concentration (EC50) of 310 nM.
Regarding `O=c1c2ncn([C@@H]3O[C@@H]4COP(=O)(S)O[C@H]5[C@@H](F)[C@H](n6cc7c8c(ncnc86)NCCC7)O[C@@H]5COP(=O)(O)O[C@@H]3[C@@H]4O)c2ncn1CCO` (stereo partly drawn) [53a, Disodium (5R,7R,8R,12aR,14R,15R,15aR,16R)-15-fluoro-16-hydroxy-7-[1-(2-hydroxyethyl)-6-oxo-1,6-dihydro-9H-purin-9-yl]-2,10-dioxo-2-sulfide-14-(6,7,8,9-tetrahydro-2H-2,3,5,6-tetraazabenzo[cd]azulen-2-yl)octahydro-2H,10H,12H-5,8-methano-2λ^5,10λ^5-furo[3,2-1][1,3,6,9,11,2,10]pentaoxadiphosphacyclotetradecin-10-olate], the thermal shift (ΔTm) at 500 µM in test [1] came out at 14.3 °C; in test [3] it was 5.4 °C; in test [4] it was 11.6 °C; in test [5], 9.6 °C. Besides, the EC50 in test [6] was found to be 6000 nM.
As to `O=c1c2ncn([C@@H]3O[C@@H]4COP(=O)(O)O[C@H]5[C@@H](F)[C@H](n6cc7c8c(ncnc86)NCCC7)O[C@@H]5COP(=O)(O)O[C@@H]3[C@@H]4O)c2ncn1CCO` [compound 54, Disodium (5R,7R,8R,12aR,14R,15R,15aR,16R)-15-fluoro-16-hydroxy-7-[1-(2-hydroxyethyl)-6-oxo-1,6-dihydro-9H-purin-9-yl]-2,10-dioxo-14-(6,7,8,9-tetrahydro-2H-2,3,5,6-tetraazabenzo[cd]azulen-2-yl)octahydro-2H,10H,12H-5,8-methano-2λ^5,10λ^5-furo[3,2-1][1,3,6,9,11,2,10]pentaoxadiphosphacyclotetradecine-2,10-bis(olate)], the ΔTm at 500 µM came to 12.1 °C in test [1], 3.4 °C in test [3], 9.8 °C in test [4] and 8.3 °C in test [5]. Also, a half-maximal response in test [6] (EC50) required 4000 nM.

The values are drawn from patent US12370263B2, “Cyclic dinucleotide derivative based antibody-drug conjugates” (DAIICHI SANKYO COMPANY, LIMITED, priority 2018, dated 2025).
